Where two headings read alike, the source gives them in different places.
What was measured:
rat mGlu3 = rat mGlu3 (Rattus norvegicus (Rat), UniProt P31422); test: mGlu3 Ca2+ flux assay; type: cell-based; conditions: for remaining activity at 30 µM: amplitude of response at 30 μM test compound as % of maximal response to glutamate, read-out: rat mGlu3 Glu max (%)
In short: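 Cells expressing rat mGlu3 were grown overnight at 37° C. under 5% CO2, then loaded with dye. After dye removal they received 20 μL of assay buffer and sat 10 minutes at room temperature. Calcium flux was read on a Hamamatsu FDSS7000, and fluorescence was expressed as fold over basal and normalized to the maximal glutamate response.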

rat mGlu5 = rat mGlu5 (Rattus norvegicus (Rat), UniProt P31424); test: mGlu5 Ca2+ flux assay; type: cell-based; conditions: for Emax at 30 µM: read-out: rat mGlu5 Glu max (%); for Fold selectivity (mGlu3 vs. mGlu5): ratio of rat mGlu5 EC50 or IC50 to rat mGlu3 IC50; for IC50: glutamate EC80
In short: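 Transfected cells grown overnight at 37° C/5% CO2, dye-loaded, then 5 min in assay buffer at RT before Ca2+ flux read on FDSS7000. Fluorescence as F/F0 fold over basal, normalized to maximal glutamate response; EC50 from unconstrained 4-parameter logistic fit, triplicates weighted evenly.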

[1] = PAM, amplitude of response at 30 μM test compound as % of maximal response to glutamate
[2] = read-out: rat mGlu5 EC50 or IC50
[3] = NAM potency, decrease of glutamate EC80 response, >30,000 = no measurable activity, >10,000 = no plateau, read-out: rat mGlu3 IC50
[4] = compound noted as NAM or partial antagonist (PAnt) at mGlu5, read-out: rat mGlu5 EC50 or IC50
[5] = compound noted as NAM or partial antagonist (PAnt) at mGlu5, response at 30 μM as % of maximal glutamate response
[6] = Table 2 compounds with X = NMe, response at 30 μM compound as percentage of maximal glutamate response

Sequence of rat mGlu3 (P31422 23-879): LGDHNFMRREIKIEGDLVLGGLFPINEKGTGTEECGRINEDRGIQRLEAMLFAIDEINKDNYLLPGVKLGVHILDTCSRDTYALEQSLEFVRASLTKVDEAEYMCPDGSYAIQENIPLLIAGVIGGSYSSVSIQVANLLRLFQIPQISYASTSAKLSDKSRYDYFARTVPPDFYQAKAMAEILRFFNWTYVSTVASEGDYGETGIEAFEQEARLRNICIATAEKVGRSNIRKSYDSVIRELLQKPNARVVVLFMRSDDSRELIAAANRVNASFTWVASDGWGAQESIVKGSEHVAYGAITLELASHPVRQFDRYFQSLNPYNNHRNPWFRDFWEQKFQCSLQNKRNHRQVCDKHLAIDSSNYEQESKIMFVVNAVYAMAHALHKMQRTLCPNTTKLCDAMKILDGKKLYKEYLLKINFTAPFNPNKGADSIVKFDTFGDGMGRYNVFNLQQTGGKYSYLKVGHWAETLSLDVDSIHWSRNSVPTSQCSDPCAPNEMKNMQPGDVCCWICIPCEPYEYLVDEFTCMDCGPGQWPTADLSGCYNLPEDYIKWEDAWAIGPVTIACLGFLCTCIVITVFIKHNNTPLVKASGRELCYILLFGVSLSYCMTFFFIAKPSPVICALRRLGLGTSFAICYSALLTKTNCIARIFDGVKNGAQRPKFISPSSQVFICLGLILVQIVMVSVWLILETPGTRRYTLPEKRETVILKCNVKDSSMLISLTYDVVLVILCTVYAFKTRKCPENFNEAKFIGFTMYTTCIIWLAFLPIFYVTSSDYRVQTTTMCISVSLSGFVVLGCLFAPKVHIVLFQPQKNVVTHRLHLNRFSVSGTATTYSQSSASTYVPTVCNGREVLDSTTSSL
Sequence of rat mGlu5 (P31424 21-1203): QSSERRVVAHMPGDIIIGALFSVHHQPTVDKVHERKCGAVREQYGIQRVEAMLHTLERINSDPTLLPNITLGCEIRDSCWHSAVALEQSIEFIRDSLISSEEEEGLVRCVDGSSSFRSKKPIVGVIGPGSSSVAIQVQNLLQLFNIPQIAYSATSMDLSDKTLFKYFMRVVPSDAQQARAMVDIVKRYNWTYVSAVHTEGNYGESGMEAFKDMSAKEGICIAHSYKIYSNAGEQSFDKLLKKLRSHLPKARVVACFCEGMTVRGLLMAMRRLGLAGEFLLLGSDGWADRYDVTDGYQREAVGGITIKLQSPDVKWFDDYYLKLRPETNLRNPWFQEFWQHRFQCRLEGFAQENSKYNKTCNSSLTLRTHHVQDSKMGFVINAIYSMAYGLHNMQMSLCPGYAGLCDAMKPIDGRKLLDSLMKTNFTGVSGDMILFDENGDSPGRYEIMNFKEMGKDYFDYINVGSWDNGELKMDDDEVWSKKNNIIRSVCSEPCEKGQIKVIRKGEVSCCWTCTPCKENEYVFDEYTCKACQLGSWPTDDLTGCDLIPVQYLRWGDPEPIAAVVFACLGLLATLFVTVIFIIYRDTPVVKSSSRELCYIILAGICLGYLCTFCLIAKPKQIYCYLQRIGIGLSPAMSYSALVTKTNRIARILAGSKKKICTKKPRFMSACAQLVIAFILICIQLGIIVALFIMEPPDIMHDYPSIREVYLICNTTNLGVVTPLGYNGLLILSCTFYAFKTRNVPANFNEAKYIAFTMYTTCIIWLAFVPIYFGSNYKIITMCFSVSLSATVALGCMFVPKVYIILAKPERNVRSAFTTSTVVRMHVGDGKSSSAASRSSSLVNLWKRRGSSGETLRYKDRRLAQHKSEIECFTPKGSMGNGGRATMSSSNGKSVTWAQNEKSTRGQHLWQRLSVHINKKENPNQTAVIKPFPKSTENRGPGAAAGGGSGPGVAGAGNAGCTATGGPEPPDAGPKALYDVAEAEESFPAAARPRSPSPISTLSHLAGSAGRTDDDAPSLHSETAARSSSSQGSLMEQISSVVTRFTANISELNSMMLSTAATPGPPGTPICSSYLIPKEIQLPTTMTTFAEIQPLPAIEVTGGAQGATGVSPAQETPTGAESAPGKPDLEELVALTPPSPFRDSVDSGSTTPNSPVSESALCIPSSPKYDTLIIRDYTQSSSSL

| IC50 (rat mGlu3; read-out: rat mGlu3 IC50) [nM] | SMILES | remaining activity at 30 µM (rat mGlu3) [%] | Emax at 30 µM (rat mGlu5; [1]) [%] | Fold selectivity (mGlu3 vs. mGlu5) (rat mGlu5) | EC50 (rat mGlu5; [2]) [µM] | IC50 (rat mGlu3; [3]) [nM] | IC50 (rat mGlu5; [4]) [µM] | Emax at 30 µM (rat mGlu5; [5]) [%] | IC50 (rat mGlu3; Table 2 compounds with X = NMe, read-out: mGlu3 IC50) [nM] | mGlu3 Glu max (rat mGlu3; [6]) [%] | EC50 (rat mGlu5; Table 2 compounds with X = NMe, read-out: mGlu5 EC50) [µM] | mGlu5 Glu max (rat mGlu5; [6]) [%] |
| --- | --- | --- | --- | --- | --- | --- | --- | --- | --- | --- | --- | --- |
| 1650 | C[C@@H]1CN(c2ccc(F)cc2)C(=O)c2cc(CNc3cccc(Cl)c3)nn21 [Compound 48, (R)-2-(((3-chlorophenyl)amino)methyl)-5-(4-fluorophenyl)-7-methyl-6,7-dihydropyrazolo[1,5-a]pyrazin-4(5H)-one] | 1.63 | 88.8 | >6.0 | > 10 | – | – | – | – | – | – | – |
| – | O=C1c2cc(CNc3ccc(F)cn3)nn2CCN1c1ccc(F)cc1 [Compound 155, 5-(4-fluorophenyl)-2-(((5-fluoropyridin-2-yl)amino)methyl)-6,7-dihydropyrazolo[1,5-a]pyrazin-4(5H)-one] | 1.5 | – | >6.8 | – | 1460 | > 10 | 11.3 | – | – | – | – |
| 334 | O=C1c2cc(CNc3ccc(OC(F)F)cc3F)nn2CCN1c1ccc(F)cc1 [Compound 37, 2-(((4-(difluoromethoxy)-2-fluorophenyl)amino)methyl)-5-(4-fluorophenyl)-6,7-dihydropyrazolo[1,5-a]pyrazin-4(5H)-one] | 2.57 | 38.4 | >29 | > 10 | – | – | – | – | – | – | – |
| – | O=C1c2cc(CNc3cc(F)cc(F)c3)nn2CCN1c1ccc(F)cc1 [Compound 30, 2-(((3,5-difluorophenyl)amino)methyl)-5-(4-fluorophenyl)-6,7-dihydropyrazolo[1,5-a]pyrazin-4(5H)-one] | 2.71 | 102 | 8.73 | 6.44 | 738 | – | – | – | – | – | – |
| – | Cc1ccccc1NCc1cc2n(n1)CCN(c1ccc(F)cc1)C2=O [Compound 4, 5-(4-fluorophenyl)-2-((o-tolylamino)methyl)-6,7-dihydropyrazolo[1,5-a]pyrazin-4(5H)-one] | 2.62 | 42.2 | >4.1 | > 10 | 2390 | – | – | – | – | – | – |
| 3720 | CCCN(Cc1cc2n(n1)CCN(c1ccc(F)c(F)c1)C2=O)c1ccc(OC)cc1 [Compound 167, 5-(3,4-Difluorophenyl)-2-(((4-methoxyphenyl)(propyl)amino)methyl)-6,7-dihydropyrazolo[1,5-a]pyrazin-4(5H)-one] | 1.32 | – | 8.06 | > 30 | – | – | – | – | – | – | – |
| – | CC(Nc1ccc(F)cc1)c1cc2n(n1)CCN(c1ccc(F)cc1)C2=O (stereo not drawn) [Compound 171, 5-(4-fluorophenyl)-2-(1-((4-fluorophenyl)amino)ethyl)-6,7-dihydropyrazolo[1,5-a]pyrazin-4(5H)-one] | 0.39 | – | >13 | > 30 | 2150 | – | – | – | – | – | – |
| – | COc1ccc(N(C)Cc2cc3n(n2)CCN(c2ccccc2Cl)C3=O)cc1 [Compound 100, 5-(2-chlorophenyl)-2-(((4-methoxyphenyl)(methyl)amino)methyl)-6,7-dihydropyrazolo[1,5-a]pyrazin-4(5H)-one] | 1.8 | – | >38 | > 30 | 777 | – | – | – | – | – | – |
| – | Cc1cccc(NCc2cc3n(n2)CCN(c2ccc(F)cc2)C3=O)c1 [Compound 8, 5-(4-fluorophenyl)-2-((m-tolylamino)methyl)-6,7-dihydropyrazolo[1,5-a]pyrazin-4(5H)-one] | 2.85 | 79.4 | 4.41 | 5.96 | 1350 | – | – | – | – | – | – |
| – | O=C1c2cc(CNc3cccc(Cl)n3)nn2CCN1c1ccc(F)cc1 [Compound 163, 2-(((6-chloropyridin-2-yl)amino)methyl)-5-(4-fluorophenyl)-6,7-dihydropyrazolo[1,5-a]pyrazin-4(5H)-one] | 1.15 | – | >25 | > 30 | 1180 | – | – | – | – | – | – |
| – | CN(Cc1cc2n(n1)CCN(c1ccc(F)cc1)C2=O)c1cccc(F)c1 [drawing 31 X = NMe] | – | – | – | – | – | – | – | 594 | 2 | 7.76 | 110 |
| – | O=C1c2cc(CNc3cccc(F)c3)nn2CCN1c1ccc(F)cc1 [Compound 7, 5-(4-fluorophenyl)-2-(((3-fluorophenyl)amino)methyl)-6,7-dihydropyrazolo[1,5-a]pyrazin-4(5H)-one] | 1.28 | 99 | 2.13 | 2.21 | 1040 | – | – | – | – | – | – |
| – | CN(Cc1cc2n(n1)CCN(c1ccc(F)cc1)C2=O)c1ccccc1Cl [Compound 84, 2-(((2-chlorophenyl)(methyl)amino)methyl)-5-(4-fluorophenyl)-6,7-dihydropyrazolo[1,5-a]pyrazin-4(5H)-one] | 0.82 | – | >5.3 | – | 1860 | > 10 | 73.4 | – | – | – | – |
| – | CCc1ccc(NCc2cc3n(n2)CCN(c2ccc(F)cc2)C3=O)cc1 [Compound 22, 2-(((4-ethylphenyl)amino)methyl)-5-(4-fluorophenyl)-6,7-dihydropyrazolo[1,5-a]pyrazin-4(5H)-one] | -11 | – | >19 | > 30 | 1550 | – | – | – | – | – | – |
| – | COc1cccc(NCc2cc3n(n2)[C@@H](C)CN(c2ccc(F)cc2)C3=O)c1 [Compound 53, (S)-5-(4-fluorophenyl)-2-(((3-methoxyphenyl)amino)methyl)-7-methyl-6,7-dihydropyrazolo[1,5-a]pyrazin-4(5H)-one] | 8.62 | – | >3.0 | > 30 | 10000 | – | – | – | – | – | – |
| – | O=C1c2cc(CNc3ccc(OC(F)F)cc3)nn2CCN1c1ccc(F)cc1 [Compound 20, 2-(((4-(difluoromethoxy)phenyl)amino)methyl)-5-(4-fluorophenyl)-6,7-dihydropyrazolo[1,5-a]pyrazin-4(5H)-one] | 2.9 | – | >42 | > 30 | 709 | – | – | – | – | – | – |
| – | COc1ccc(N(C)Cc2cc3n(n2)CCN(c2cccc(F)c2Cl)C3=O)cc1 [Compound 126, 5-(2-chloro-3-fluorophenyl)-2-(((4-methoxyphenyl)(methyl)amino)methyl)-6,7-dihydropyrazolo[1,5-a]pyrazin-4(5H)-one] | 1.5 | – | >6.2 | – | 1600 | > 10 | 56.8 | – | – | – | – |
| – | C[C@H]1CN(c2ccc(F)cc2)C(=O)c2cc(CNc3ccc(Cl)cc3)nn21 [Compound 61, (S)-2-(((4-chlorophenyl)amino)methyl)-5-(4-fluorophenyl)-7-methyl-6,7-dihydropyrazolo[1,5-a]pyrazin-4(5H)-one] | 2.22 | 80.3 | 4.69 | 6.15 | 1310 | – | – | – | – | – | – |
| – | COc1cc(F)cc(N2CCn3nc(CNc4ccc(OC(F)F)cc4F)cc3C2=O)c1 [Compound 147, 2-(((4-(difluoromethoxy)-2-fluorophenyl)amino)methyl)-5-(3-fluoro-5-methoxyphenyl)-6,7-dihydropyrazolo[1,5-a]pyrazin-4(5H)-one] | 1.67 | – | >23 | > 30 | 1260 | – | – | – | – | – | – |
| – | COc1ccc(NC(C)c2cc3n(n2)CCN(c2ccc(F)cc2)C3=O)cc1 (stereo not drawn) [Compound 169, 5-(4-Fluorophenyl)-2-(1-((4-methoxyphenyl)amino)ethyl)-6,7-dihydropyrazolo[1,5-a]pyrazin-4(5H)-one] | -6.64 | – | >3.8 | > 30 | 7740 | – | – | – | – | – | – |
| – | C[C@H]1CN(c2ccc(F)cc2)C(=O)c2cc(CNc3cccc(OC(F)F)c3)nn21 [Compound 55, (S)-2-(((3-(difluoromethoxy)phenyl)amino)methyl)-5-(4-fluorophenyl)-7-methyl-6,7-dihydropyrazolo[1,5-a]pyrazin-4(5H)-one] | 1.85 | 28.8 | >5.9 | > 10 | 1670 | – | – | – | – | – | – |
| – | CN(Cc1cc2n(n1)CCN(c1ccc(F)cc1)C2=O)c1cc(F)cc(F)c1 [Compound 94, 2-(((3,5-difluorophenyl)(methyl)amino)methyl)-5-(4-fluorophenyl)-6,7-dihydropyrazolo[1,5-a]pyrazin-4(5H)-one] | 1.58 | 29.9 | >15 | > 10 | 660 | – | – | – | – | – | – |

| SMILES | IC50 (rat mGlu3; read-out: rat mGlu3 IC50) [nM] | remaining activity at 30 µM (rat mGlu3) [%] | Emax at 30 µM (rat mGlu5; [1]) [%] | Fold selectivity (mGlu3 vs. mGlu5) (rat mGlu5) | EC50 (rat mGlu5; [2]) [µM] | IC50 (rat mGlu3; [3]) [nM] | IC50 (rat mGlu5; [4]) [µM] | Emax at 30 µM (rat mGlu5; [5]) [%] | IC50 (rat mGlu3; Table 2 compounds with X = NMe, read-out: mGlu3 IC50) [nM] | mGlu3 Glu max (rat mGlu3; [6]) [%] | EC50 (rat mGlu5; Table 2 compounds with X = NMe, read-out: mGlu5 EC50) [µM] | mGlu5 Glu max (rat mGlu5; [6]) [%] |
| --- | --- | --- | --- | --- | --- | --- | --- | --- | --- | --- | --- | --- |
| O=C1c2cc(CNc3ccc(C(F)(F)F)cc3)nn2CCN1c1ccc(F)cc1 [Compound 19, 5-(4-fluorophenyl)-2-(((4-(trifluoromethyl)phenyl)amino)methyl)-6,7-dihydropyrazolo[1,5-a]pyrazin-4(5H)-one] | > 30000 | – | – | – | > 30 | – | – | – | – | – | – | – |
